Results: patent US20250206745A1, “PYRROLOPYRIDAZINE DERIVATIVES AND RELATED USES” (NodThera Limited, priority 2023, published 2025)
Where a name gives a salt, the structure may show the parent alone.

Columns and labels:
[1] = tested on: IL-1β release upon NLRP3 activation in peripheral blood mononuclear cells (PBMC); test: PBMC IC50 Determination Assay; format: cell-based; conditions: Homo sapiens; inhibition of IL-1β release; PBMC primed with LPS, stimulated with ATP or nigericin; ELISA or HTRF
Procedure: The compounds of the present disclosure were tested for their inhibitory activity against IL-1β release upon NLRP3 activation in peripheral blood mononuclear cells (PBMC).
Protocol A. PBMC were isolated from buffy coats by density gradient centrifugation on Histopaque-1077 (Sigma, cat no. 10771). Isolated cells were seeded into the wells of a 96-well plate and incubated for 3 h with lipopolysaccharide (LPS). Following medium exchange, the compounds of the present disclosure were added (a single compound per well) and the cells were incubated for 30 min. Next, the cells were stimulated either with ATP (5 mM) or nigericin (10 μM) for 1 h and the cell culture media from the wells were collected for further analysis.
The release of IL-1β into the media was determined by a quantitative detection of IL-1β in the media using an IL-1β enzyme-linked immunosorbent assay (ELISA) Ready-SET-Go!, eBioscience cat. No. 88-7261-88. Briefly, in a first step, high affinity binding plates (Corning, Costar 9018 or NUNC Maxisorp Cat No. 44-2404) were coated overnight at 4° C. with specific capture antibody included in the kit (anti-human IL-1β ref. 14-7018-68). Subsequently, plates were blocked with blocking buffer for 1 h at room temperature (rt) and after washing with a buffer (PBS with 0.05% Tween-20) incubated with protein standard and culture media. After 2 h of incubation at rt, plates were washed and incubated with biotinylated detection antibody included in the kit (anti-human IL-1β Biotin ref. 33-7110-68) for 1 h at rt. Plates were washed and incubated with HRP-streptavidin for 30 min at rt and washed again. The signal was developed after addition of 3,3′,5,5′-tetramethylbenzidine-peroxidase (TMB) until colour appeared and the reaction was stopped by 2 M H2SO4. A microplate spectrophotometer (BioTek) was used to detect signals with 450 nm. The detection range of IL-1β ELISA was […].
Protocol B. PBMC were isolated from buffy coats by density gradient centrifugation on Histopaque-1077 (Sigma, cat no. 10771). Isolated cells were seeded into the wells (280,000 cells/well) of a 96-well plate and incubated for 3 h with lipopolysaccharide (LPS, 1 μg/mL diluted 1000× from a 1 mg/mL stock solution). The compounds of the present disclosure were added (a single compound per well) and the cells were incubated for 30 min. Next, the cells were stimulated with ATP (5 mM final concentration diluted 20× from a 100 mM stock solution) for 1 h and the cell culture media from the wells were collected for further analysis.
The release of IL-1β into the media was determined by quantitative detection of IL-1β in the media using HTRF®, CisBio cat. No. 62HIL1BPEH. Briefly, cell culture supernatant were dispensed directly into the assay plate containing antibodies labelled with the HTRF® donor and acceptor. A microplate spectrophotometer (BMG) was used to detect signals at 655 nm and 620 nm. The detection range of IL-1β HTRF® was 39-6500 pg/mL.

[2] = tested on: IL-1β release upon NLRP3 activation in phorbol 12-myristate 13-acetate (PMA)-differentiated THP-1 cells; test: THP-1 IC50 Determination Assay; format: cell-based; conditions: Homo sapiens, inhibition of IL-1β release, LPS, nigericin, ELISA
Procedure: The compounds of the present disclosure were tested for their inhibitory activity against IL-1β release upon NLRP3 activation in phorbol 12-myristate 13-acetate (PMA)-differentiated THP-1 cells.
THP-1 cells stored in liquid nitrogen were thawed in a 37° C. water bath. The cells were added into complete RPMI 1640 medium (FBS (56 mL), 100× Penicillin-Streptomycin (5.6 mL) and 0.05 mM 2-Mercaptoethanol in RPMI 1640 Medium (500 mL)) and centrifuged for 5 min at 1000 rpm. The supernatant was discarded and the cells resuspended into new cell culture medium for culturing. Cells were cultured in cell culture medium and passaged every 3-4 days to maintain cell density between 4×10^5 and 1.5×10^6 cells/mL. The cells were diluted to 0.8×10^6 cells/mL and grown in a T150 flask with PMA (final concentration 5 ng/mL). The flask was incubated in a 37° C. incubator with a humidified atmosphere of 5% CO2 for −40 hours. After −40 hours of PMA differentiation, the flask was washed with DPBS. Cells were digested with Trypsin LE for about 5 min at room temperature, and digestion was terminated using complete RPMI 1640 medium. Cells were centrifuged and resuspended (1000 rpm, 3 min). The supernatant was discarded and cells washed with DPBS, centrifuged and resuspended cells (1000 rpm, 5 min). Cells were plated at 30,000 cells/well in a 384-well PP plate and treated with 25 ng/mL LPS solution diluted in serum-free medium (45 μL). The plate was incubated in a 37° C. incubator with a humidified atmosphere of 5% CO2 for 2 hours. Compounds (from 10 mM DMSO solution) were dispensed and serially diluted by 1:3 eight times, with final 0.5% DMSO concentration. NLRP3 inflammasome was activated with nigericin (5 μL), the plate was centrifuged (1000 rpm, 30 s) and incubated in a 37° C. incubator with a humidified atmosphere of […] for 2 hours. 35 μL/well of supernatant was removed and IL-1β levels determined by ELISA assay (Mabtech 3416-1H-20) according to the manufacturer's instructions.

| SMILES | IC50 [1] | IC50 [2] |
| --- | --- | --- |
| Cc1cc(Cl)cc(O)c1-c1cc2ccn(C[C@@H]3CCN(C)C[C@@H]3F)c2nn1 (relative stereo) [Compound 24, Cis-5-chloro-2-{7-[(3-fluoro-1-methylpiperidin-4-yl)methyl]-7H-pyrrolo[2,3-c]pyridazin-3-yl}-3-methylphenol] | 30 to 100 nM | 100 to 300 nM |
| Cc1cc(Cl)cc(O)c1-c1cc2ccn(C[C@@H]3CCN(C)C[C@H]3F)c2nn1 (relative stereo) [Compound 51, Trans-5-chloro-2-{7-[(3-fluoro-1-methylpiperidin-4-yl)methyl]-7H-pyrrolo[2,3-c]pyridazin-3-yl}-3-methylphenol hydrochloride] | 100 to 300 nM | 1000 to 3000 nM |
| Cc1cc(C(F)(F)F)cc(O)c1-c1cc2ccn(CC3CCOCC3)c2nn1 [Compound 1, 3-Methyl-2-{7-[(oxan-4-yl)methyl]-7H-pyrrolo[2,3-c]pyridazin-3-yl}-5-(trifluoromethyl)phenol] | 100 to 300 nM | 300 to 1000 nM |
| Cc1cc(C(F)(F)F)cc(O)c1-c1cc2ccn(CC3CCCO3)c2nn1 (stereo not drawn) [Compound 2, 3-Methyl-2-{7-[(oxolan-2-yl)methyl]-7H-pyrrolo[2,3-c]pyridazin-3-yl}-5-(trifluoromethyl)phenol] | 300 to 1000 nM | 100 to 300 nM |
| Cc1cc(C(F)(F)F)cc(O)c1-c1cc2ccn(CC3CCOC3)c2nn1 (stereo not drawn) [Compound 3, 3-Methyl-2-{7-[(oxolan-3-yl)methyl]-7H-pyrrolo[2,3-c]pyridazin-3-yl}-5-(trifluoromethyl)phenol] | 100 to 300 nM | 100 to 300 nM |
| Cc1cc(C(F)(F)F)cc(O)c1-c1cc2ccn(CC3CCN(C)CC3)c2nn1 [Compound 4, 3-Methyl-2-{7-[(1-methylpiperidin-4-yl)methyl]-7H-pyrrolo[2,3-c]pyridazin-3-yl}-5-(trifluoromethyl)phenol] | 30 to 100 nM | 30 to 100 nM |
| Cc1cc(C(F)(F)F)cc(O)c1-c1cc2cc[nH]c2nn1 [Compound 5, 3-Methyl-2-{7H-pyrrolo[2,3-c]pyridazin-3-yl}-5-(trifluoromethyl)phenol] | 300 to 1000 nM | 300 to 1000 nM |
| Cc1cc(C(F)(F)F)cc(O)c1-c1cc2ccn(C)c2nn1 [Compound 6, 3-Methyl-2-{7-methyl-7H-pyrrolo[2,3-c]pyridazin-3-yl}-5-(trifluoromethyl)phenol] | 300 to 1000 nM | 300 to 1000 nM |
| Cc1cc(Cl)cc(O)c1-c1cc2ccn(CC3CCN(CC(F)(F)F)CC3)c2nn1 [Compound 7, 5-Chloro-3-methyl-2-(7-{[1-(2,2,2-trifluoroethyl)piperidin-4-yl]methyl}-7H-pyrrolo[2,3-c]pyridazin-3-yl)phenol] | 300 to 1000 nM | 300 to 1000 nM |
| Cc1cc(Cl)cc(O)c1-c1cc2ccn(CC3CCCN(C)C3)c2nn1 (stereo not drawn) [Compound 8, 5-Chloro-3-methyl-2-{7-[(1-methylpiperidin-3-yl)methyl]-7H-pyrrolo[2,3-c]pyridazin-3-yl}phenol] | 30 to 100 nM | 100 to 300 nM |
| CC(=O)N1CCC(Cn2ccc3cc(-c4c(C)cc(Cl)cc4O)nnc32)CC1 [Compound 9, 1-(4-{[3-(4-Chloro-2-hydroxy-6-methylphenyl)-7H-pyrrolo[2,3-c]pyridazin-7-yl]methyl}piperidin-1-yl)ethan-1-one] | 30 to 100 nM | 30 to 100 nM |
| Cc1cc(Cl)cc(O)c1-c1cc2ccn(CC(=O)N(C)[C@@H]3CCOC3)c2nn1 [Compound 60, 2-[3-(4-Chloro-2-hydroxy-6-methylphenyl)-7H-pyrrolo[2,3-c]pyridazin-7-yl]-N-methyl-N-[(3R)-oxolan-3-yl]acetamide] |  | 100 to 300 nM |
| Cc1cc(Cl)cc(O)c1-c1cc2ccn(CC(=O)N(C)[C@H]3CCN(C)C3)c2nn1 [Compound 61, 2-[3-(4-Chloro-2-hydroxy-6-methylphenyl)-7H-pyrrolo[2,3-c]pyridazin-7-yl]-N-methyl-N-[(3S)-1-methylpyrrolidin-3-yl]acetamide hydrochloride] |  | 100 to 300 nM |
| Cc1cc(Cl)cc(O)c1-c1cc2ccn(CC(=O)N(C)[C@@H]3CCN(C)C3)c2nn1 [Compound 62, 2-[3-(4-Chloro-2-hydroxy-6-methylphenyl)-7H-pyrrolo[2,3-c]pyridazin-7-yl]-N-methyl-N-[(3R)-1-methylpyrrolidin-3-yl]acetamide hydrochloride] |  | 300 to 1000 nM |
| Cc1cc(Cl)cc(O)c1-c1cc2ccn(CC3CC(=O)N(C)C3)c2nn1 (stereo not drawn) [Compound 64, 4-{[3-(4-Chloro-2-hydroxy-6-methylphenyl)-7H-pyrrolo[2,3-c]pyridazin-7-yl]methyl}-1-methylpyrrolidin-2-one] |  | 100 to 300 nM |
| Cc1cc(Cl)cc(O)c1-c1cc2ccn(CC3CCN(C)C3=O)c2nn1 (stereo not drawn) [Compound 66, 3-{[3-(4-Chloro-2-hydroxy-6-methylphenyl)-7H-pyrrolo[2,3-c]pyridazin-7-yl]methyl}-1-methylpyrrolidin-2-one] |  | 300 to 1000 nM |
| Cc1cc(Cl)cc(O)c1-c1cc2ccn(C3CCN(C)CC3)c2nn1 [Compound 67, 5-Chloro-3-methyl-2-[7-(1-methylpiperidin-4-yl)-7H-pyrrolo[2,3-c]pyridazin-3-yl]phenol] |  | 300 to 1000 nM |
| CN1CCC(Cn2ccc3cc(-c4ccc(C#N)cc4O)nnc32)CC1 [Compound 68, 3-Hydroxy-4-{7-[(1-methylpiperidin-4-yl)methyl]-7H-pyrrolo[2,3-c]pyridazin-3-yl}benzonitrile] |  | 3000 to 10000 nM |
| Cc1cc(Cl)cc(O)c1-c1cc2ccn([C@@H]3CCN(C)C3=O)c2nn1 [Compound 69, (3R)-3-[3-(4-Chloro-2-hydroxy-6-methylphenyl)-7H-pyrrolo[2,3-c]pyridazin-7-yl]-1-methylpyrrolidin-2-one] |  | 300 to 1000 nM |
| Cc1cc(Cl)cc(O)c1-c1cc2ccn(CC3CCC(=O)N(C)C3)c2nn1 (stereo not drawn) [Compound 70, 5-{[3-(4-Chloro-2-hydroxy-6-methylphenyl)-7H-pyrrolo[2,3-c]pyridazin-7-yl]methyl}-1-methylpiperidin-2-one] |  | 100 to 300 nM |
| Cc1cc(Cl)cc(O)c1-c1cc2ncn(C[C@@H]3CCCN(C)C3)c2nn1 [Compound 79, 5-Chloro-3-methyl-2-(7-{[(3R)-1-methylpiperidin-3-yl]methyl}-7H-imidazo[4,5-c]pyridazin-3-yl)phenol hydrochloride] |  | 30 to 100 nM |
| Cc1cc(Cl)cc(O)c1-c1cc2ncn(C[C@H]3CCCN(C)C3)c2nn1 [Compound 80, 5-Chloro-3-methyl-2-(7-{[(3S)-1-methylpiperidin-3-yl]methyl}-7H-imidazo[4,5-c]pyridazin-3-yl)phenol hydrochloride] |  | 100 to 300 nM |
